Patent US20250282754A1, “BICYCLIC COMPOUNDS AND THEIR USE AS PEST CONTROL AGENTS” (Pl Industries Ltd., priority 2022, published 2025)

Key:
Assay type in all cases: in vivo
Bemisia tabaci = Bemisia tabaci leaf dip test (brinjal leaves, whitefly adults); conditions: foliar, dead and moribund whitefly adults 72 h after release, compared to untreated controls, read-out: percent mortality
Outline: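 Brinjal leaves were dipped 10 s in compound diluted in 0.01% Triton-X, dried, and placed on agar, then exposed to freshly emerged whitefly adults at 25° C, 70% RH. Dead plus moribund adults were counted at 72 h, and percent mortality was calculated relative to untreated controls.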

Myzus persicae = Myzus persicae leaf dip test (capsicum leaves, third instar nymphs); conditions: foliar, dead and moribund third instar nymphs 72 h after release, compared to untreated controls, read-out: percent mortality
Nilaparvata lugens = Nilaparvata lugens seedling dip test (paddy seedlings, third instar nymphs); conditions: dead and moribund third instar nymphs 72 h after release, compared to untreated controls, read-out: percent mortality
Outline: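 Paddy seedlings dipped 10 s in compound diluted with 0.01% Triton-X, shade dried, then infested with 15 third-instar nymphs at 25 °C, 75% RH. Mortality (dead plus moribund) scored at 72 h relative to untreated controls.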

Measured: mortality at 300 ppm

CCS(=O)(=Nc1ccc2nn(-c3cccnc3)cc2n1)C(C)C (stereo not drawn) [Compound 240]
≥ 70%: all assays above

CCOc1nn(-c2ccc3nn(-c4cccnc4)cc3c2)c(=O)n1Cc1ccc(F)cc1 [Compound 337, 5-ethoxy-4-(4-fluorobenzyl)-2-(2-(pyridin-3-yl)-2H-indazol-5-yl)-2,4-dihydro-3H-1,2,4-triazol-3-one]
≥ 70%: all assays above

COc1nn(-c2ccc3nn(-c4cccnc4)cc3c2)c(=O)n1Cc1ccc(Cl)cc1 [Compound 354, 4-(4-chlorobenzyl)-5-methoxy-2-(2-(pyridin-3-yl)-2H-indazol-5-yl)-2,4-dihydro-3H-1,2,4-triazol-3-one]
≥ 70%: all assays above

N=S(=O)(CC1CC1)c1ccc2nn(-c3cccnc3)cc2c1 (stereo not drawn) [Compound 386, (cyclopropylmethyl)(imino)(2-(pyridin-3-yl)-2H-indazol-5-yl)-λ^6-sulfanone]
≥ 70%: all assays above

CCS(=N)(=O)c1ccc2nn(-c3cccnc3)cc2c1 (stereo not drawn) [Compound 387, ethyl(imino)(2-(pyridin-3-yl)-2H-indazol-5-yl)-λ^6-sulfanone]
≥ 70%: all assays above

CC(=O)N=S(=O)(c1ccc2nn(-c3cccnc3)cc2c1)C(C)C (stereo not drawn) [Compound 389]
≥ 70%: all assays above

CCN=S(=O)(c1ccc2nn(-c3cncc(F)c3)cc2c1)C(C)C (stereo not drawn) [Compound 397]
≥ 70%: all assays above

CC(C)S(=O)(=NC1CC1)c1ccc2nn(-c3cccnc3)cc2c1 (stereo not drawn) [Compound 406]
≥ 70%: all assays above

CCN=S(=O)(c1ccc2nn(-c3cncnc3)cc2c1)C(C)C (stereo not drawn) [Compound 419]
≥ 70%: all assays above

CCN=S(=O)(CC)c1ccc2nn(-c3cncnc3)cc2c1 (stereo not drawn) [Compound 457]
≥ 70%: all assays above

CCN=S(=O)(CC)c1ccc2nn(-c3cncc(F)c3)cc2c1 (stereo not drawn) [Compound 461]
≥ 70%: all assays above
